From ChEMBL document CHEMBL1201862, “PubChem BioAssay data set” (2004) come the findings set out here.

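Values below derive from 48-hour exposures of cells grown in 96-well plates, with endpoints linearly interpolated between the two concentrations bracketing the appropriate inhibition level. Here, GI50 denotes the concentration required for 50% inhibition of growth.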 The source made the active and inactive calls. Cut-off read from the data, not from the text of the source: active = GI50 up to about 1.1 µM and inactive = higher.

Test systems include 786-0; A549; HCC 2998; K562; MCF7; MDA-MB-231; MDA-N; Malme-3M; NCI-H522; OVCAR-3; OVCAR-4; RPMI-8226; RXF 393; SF-539; SK-MEL-2; SK-OV-3; SNB-19; SNB-75; T47D; TK-10.
Common to all, as to assay: NCI tumour cell line growth inhibition, 48 h

In the case of `CCN(CC)c1cc2c3c(c1)CCCN3CCC2`, the GI50 with 786-0, with A549, in the test with HCC 2998, with K562, with MCF7 and in the test with MDA-MB-231 was > 10 µM (inactive) in each case. Moreover, the GI50 with MDA-N, in the test on Malme-3M, in the test on NCI-H522, in the test on OVCAR-3, in the test on OVCAR-4 and with RPMI-8226 was > 10 µM (inactive) throughout. The GI50 with RXF 393, in the test with SF-539, in the test with SK-MEL-2, in the test on SK-OV-3, in the test with SNB-19 and in the test on SNB-75 was > 10 µM (inactive) throughout. Moreover, the GI50 in the test on T47D and in the test with TK-10 was > 10 µM (inactive) throughout.

`FC(F)(F)c1ccc2c(c1)nc(-c1ccccc1)n2CC1CCCN2CCCCC12` (stereo not given): the GI50 in the test on 786-0 is 15.7 µM (inactive); in the test on A549 it was 24.9 µM (inactive); with HCC 2998, 16 µM (inactive); in the test on K562, 21.1 µM (inactive); with MCF7, 17.1 µM (inactive); with MDA-MB-231 it was 13.6 µM (inactive). Moreover, the GI50 is 17.6 µM (inactive) with MDA-N; 13.7 µM (inactive) with Malme-3M; 14.2 µM (inactive) with NCI-H522; 23.5 µM (inactive) with OVCAR-3; 34.8 µM (inactive) in the test on OVCAR-4; 32 µM (inactive) in the test on RPMI-8226. Also, the GI50 in the test on RXF 393 was 19 µM (inactive); with SF-539, 16.4 µM (inactive); with SK-MEL-2, 15.3 µM (inactive); with SK-OV-3, 16.9 µM (inactive); in the test on SNB-19, 34.8 µM (inactive); with SNB-75, 19.3 µM (inactive). The GI50 in the test with T47D was 20 µM (inactive); in the test on TK-10, 19.6 µM (inactive).

On to `O=C(/C=C1\Nc2ccc([N+](=O)[O-])cc2N\C1=C/C(=O)c1ccc(F)cc1)c1ccc(F)cc1`, for which the GI50 is 12.9 µM (inactive) in the test on 786-0; > 100 µM (inactive) in the test with A549; 80 µM (inactive) in the test with HCC 2998; 22.2 µM (inactive) with K562; 52.8 µM (inactive) in the test with MCF7; 16 µM (inactive) in the test with MDA-MB-231. Further, the GI50 with MDA-N was > 100 µM (inactive); in the test on Malme-3M, > 100 µM (inactive); in the test on NCI-H522, 10.5 µM (inactive); in the test with OVCAR-3, 25 µM (inactive); with OVCAR-4 it was > 100 µM (inactive); with RPMI-8226, 20.9 µM (inactive). Besides, the GI50 in the test with RXF 393 was 17.9 µM (inactive); in the test on SF-539, 19.6 µM (inactive); in the test with SK-MEL-2, 17.2 µM (inactive); with SK-OV-3, 17.9 µM (inactive); in the test on SNB-19, 23.1 µM (inactive); in the test on SNB-75, 15.7 µM (inactive). Also, the figures for the GI50 in the test on T47D and with TK-10 were 82.8 µM (inactive) and 15.3 µM (inactive), respectively.

Regarding `Cc1ccc(Nc2nc(=O)[nH]c(=O)[nH]2)cc1N=[N+]=[N-]`, the GI50 in the test on 786-0, in the test on A549, in the test with HCC 2998, in the test on K562, in the test with MCF7 and in the test with MDA-MB-231 was > 100 µM (inactive) in each case. Moreover, the GI50 in the test with MDA-N, in the test with Malme-3M, in the test with NCI-H522, with OVCAR-3, in the test with OVCAR-4 and in the test on RPMI-8226 was > 100 µM (inactive) in each case. Moreover, the GI50 in the test on RXF 393, in the test with SF-539, in the test with SK-MEL-2, with SK-OV-3, in the test on SNB-19 and in the test with SNB-75 was > 100 µM (inactive) each time. Moreover, the GI50 in the test on T47D and in the test with TK-10 was > 100 µM (inactive) throughout.

As to `CC[C@H](C)C(=O)O[C@H]1CCC=C2C=C[C@H](C)[C@H](CC[C@@H]3C[C@@H](O)CC(=O)O3)[C@H]21` [MEVASTATIN], the GI50 in the test with 786-0 is 13.3 µM (inactive); in the test on A549 it was 27.4 µM (inactive); in the test on HCC 2998, 25.6 µM (inactive); in the test on K562, 30.1 µM (inactive); in the test on MCF7, 20.3 µM (inactive); with MDA-MB-231, 3.85 µM (inactive). Besides, the GI50 in the test on MDA-N was > 100 µM (inactive); in the test on Malme-3M, 34.1 µM (inactive); in the test with NCI-H522, 2.85 µM (inactive); with OVCAR-3, 30.4 µM (inactive); with OVCAR-4 it was 43.1 µM (inactive); in the test with RPMI-8226 it was 20 µM (inactive). Further, the GI50 in the test with RXF 393 is 14.3 µM (inactive); with SF-539, 7.35 µM (inactive); in the test on SK-MEL-2, 5.77 µM (inactive); with SK-OV-3, 44.3 µM (inactive); with SNB-19, 16.4 µM (inactive); in the test on SNB-75 it was 2.07 µM (inactive). Besides, the GI50 in the test with T47D was > 82.8 µM (inactive); in the test on TK-10, 36.6 µM (inactive).

Take `O=C(N/N=C\c1cccc2ccccc12)Nc1ccc([N+](=O)[O-])cc1`: the GI50 is 3.54 µM (inactive) with 786-0; 9.71 µM (inactive) in the test with A549; 15.8 µM (inactive) in the test with HCC 2998; 5.58 µM (inactive) in the test on K562; 9.51 µM (inactive) in the test with MCF7; 30.7 µM (inactive) in the test with MDA-MB-231. Moreover, the GI50 in the test with MDA-N was 19.1 µM (inactive); with Malme-3M, 14.2 µM (inactive); in the test on NCI-H522, 5.66 µM (inactive); in the test with OVCAR-3, 7.74 µM (inactive); in the test with OVCAR-4, 8.04 µM (inactive); with RPMI-8226, > 19.7 µM (inactive). Also, the GI50 in the test on RXF 393 is 7.13 µM (inactive); in the test on SF-539, 8.05 µM (inactive); with SK-MEL-2, 20 µM (inactive); in the test with SK-OV-3, 24.6 µM (inactive); with SNB-19 it was 21.4 µM (inactive); in the test with SNB-75, 38.9 µM (inactive). The GI50 in the test with T47D is 4.28 µM (inactive); in the test with TK-10 it was 4.94 µM (inactive).

For the compound `CC(=O)O[C@H]1C(=O)[C@@]2(C)[C@H]([C@H](OC(=O)c3ccccc3)[C@]3(O)C[C@H](OC(=O)[C@H](O)[C@@H](NC(=O)c4ccccc4)c4ccc5ccccc5c4)C(C)=C1C3(C)C)[C@]1(OC(C)=O)CO[C@@H]1C[C@@H]2O`, the GI50 with 786-0 is 0.153 µM (active); with A549, 0.0998 µM (active); in the test with HCC 2998, 0.0457 µM (active); in the test with K562, 0.029 µM (active); in the test with MCF7, 0.00966 µM (active); in the test on MDA-MB-231 it was 0.0476 µM (active). In addition, the GI50 was 0.0101 µM (active) in the test with MDA-N; 0.179 µM (active) with Malme-3M; 0.0524 µM (active) in the test on NCI-H522; 0.0362 µM (active) in the test with OVCAR-3; 0.841 µM (active) in the test with OVCAR-4; 0.0229 µM (active) in the test with RPMI-8226. The GI50 in the test on RXF 393 is 0.219 µM (active); with SF-539, 0.0336 µM (active); with SK-MEL-2, 0.0362 µM (active); in the test on SK-OV-3, 0.0248 µM (active); in the test with SNB-19 it was 0.279 µM (active); in the test with SNB-75, 0.0594 µM (active). Moreover, the results for the GI50 in the test with T47D and with TK-10 were 2.16 µM (inactive) and 0.506 µM (active), respectively.

On to `C=C(C)[C@@H]1CC=C(CO)CC1` [PERILLYL ALCOHOL], for which the GI50 was 195 µM (inactive) in the test on 786-0; 126 µM (inactive) in the test with A549; 753 µM (inactive) with HCC 2998; 30.5 µM (inactive) in the test with K562; > 10 µM (inactive) in the test with MCF7; > 10 µM (inactive) in the test with MDA-MB-231. Besides, the GI50 in the test with MDA-N is > 10 µM (inactive); with Malme-3M, 324 µM (inactive); in the test with NCI-H522 it was 344 µM (inactive); in the test with OVCAR-3, 150 µM (inactive); with OVCAR-4, 515 µM (inactive); with RPMI-8226, > 10 µM (inactive). Moreover, the GI50 with RXF 393 is 93.8 µM (inactive); with SF-539 it was 501 µM (inactive); with SK-MEL-2, 122 µM (inactive); in the test on SK-OV-3 it was 748 µM (inactive); with SNB-19, 348 µM (inactive); in the test on SNB-75 it was 56 µM (inactive). The GI50 is > 10 µM (inactive) with T47D and 324 µM (inactive) with TK-10.

Regarding `COc1cc2oc3c(c(=O)c2c(O)c1/C=C/C(C)C)CCC(C)(C)Oc1cc(O)ccc1-3`, the GI50 is 14.9 µM (inactive) with 786-0; 12 µM (inactive) in the test with A549; 14.4 µM (inactive) with HCC 2998; 4.32 µM (inactive) with K562; 13.3 µM (inactive) with MCF7; 16.6 µM (inactive) with MDA-MB-231. In addition, the GI50 with MDA-N was 13 µM (inactive); in the test with Malme-3M, 20 µM (inactive); with NCI-H522 it was 18.1 µM (inactive); in the test with OVCAR-3, 15.6 µM (inactive); in the test with OVCAR-4, 14.3 µM (inactive); with RPMI-8226, 20 µM (inactive). The GI50 with RXF 393 was 11.5 µM (inactive); in the test with SF-539 it was 13.1 µM (inactive); in the test on SK-MEL-2 it was 16.6 µM (inactive); with SK-OV-3 it was 16.7 µM (inactive); in the test with SNB-19, 16.1 µM (inactive); in the test on SNB-75 it was 16 µM (inactive). In addition, the GI50 in the test on T47D is 33.9 µM (inactive); with TK-10, 13.8 µM (inactive).

Take `Cc1ccc2cccc3c2c1CC1(C3=O)S(=O)(=O)OCCOS1(=O)=O`: the GI50 in the test on 786-0, in the test on A549, with HCC 2998, in the test on K562, in the test with MCF7 and in the test on MDA-MB-231 was > 100 µM (inactive) throughout. The GI50 in the test with MDA-N, in the test on Malme-3M, in the test on NCI-H522, in the test on OVCAR-3, in the test on OVCAR-4 and in the test on RPMI-8226 was > 100 µM (inactive) in each case. For the same compound, the GI50 with RXF 393, in the test on SF-539, in the test on SK-MEL-2, with SK-OV-3, in the test on SNB-19 and with SNB-75 was > 100 µM (inactive) each time. The GI50 with T47D and with TK-10 was > 100 µM (inactive) in each case.
